This data set in a line: Stability of liquid formulations containing a melflufen salt and propylene glycol at room temperature (HPLC-MS). Type of data set: physicochemical. The following applies: for Purity of melfufen in the liquid formulation containing a melfufen salt and propylene glycol at RT: 20 mg/mL in propylene glycol, RT (20-25° C.); for stability on storage: in propylene glycol, room temperature (RT), over 7 weeks. As for the experimental part: The solubility and stability of ethanesulfonic acid, p-toluenesulfonic acid and hydrochloric acid salts of melflufen in propylene glycol were investigated. 10 mg of each melflufen salt was transferred to transparent 4 mL vials and propylene glycol (Merck Lot # K51750378936, 1.07478.2500) was added to a concentration of 20 mg/mL. The vials were shaken for a short time and stored at room temperature (RT, 20-25° C.).
The stability of the melflufen salt solutions were analysed at weekly time points by Analytical HPLC-MS using an Agilent 1100 series Liquid Chromatograph/Mass Selective Detector (MSD) (Single Quadrupole) equipped with an electrospray interface and a UV diode array detector. Analysis was performed by using an ACE 3 C8 (3.0×50 mm) column with a gradient of 10-97% acetonitrile in 0.1% aqueous TFA over 3 min and a flow of 1 mL/min. UV was monitored at 305 nm. At each time point (0, 1, 2, 3, 4, 5, 6 and 7 weeks) 10 μL of the melflufen solution was diluted with 490 μL of acetonitrile before HPLC-MS analysis.

Counter-ions that a name gives are not always drawn.

Turning to `CCOC(=O)[C@H](Cc1ccc(F)cc1)NC(=O)[C@@H](N)Cc1ccc(N(CCCl)CCCl)cc1.CCS(=O)(=O)O` [melflufen ethanesulfonic acid salt, ethanesulfonic acid;ethyl (2S)-2-[[(2S)-2-amino-3-[4-[bis(2-chloroethyl)amino]phenyl]propanoyl]amino]-3-(4-fluorophenyl)propanoate], the stability on storage entry is reported as “good stability”. Further, the “Purity of melfufen in the liquid formulation containing a melfufen salt and propylene glycol at RT” value (“Purity of melfufen” below) (0 weeks) is listed as 100 % relative peak area. For the same compound, the “Purity of melfufen” value (1 week) turned out to be 95 % relative peak area. Further, the “Purity of melfufen” value (2 weeks) amounted to 94 % relative peak area. Also, the “Purity of melfufen” value (3 weeks) is recorded as 93 % relative peak area. Where the note is “4 weeks”, the “Purity of melfufen” value was 94 % relative peak area. The “Purity of melfufen” value (5 weeks) stood at 89 % relative peak area. Moreover, the “Purity of melfufen” value (6 weeks) turned out to be 88 % relative peak area. Further, for the setting “7 weeks”, the “Purity of melfufen” value was 87 % relative peak area.

Turning to `CCOC(=O)[C@H](Cc1ccc(F)cc1)NC(=O)[C@@H](N)Cc1ccc(N(CCCl)CCCl)cc1` [melflufen hydrochloric acid salt, L-Melphalanyl-4-fluoro-L-phenylalanine ethyl ester, reference compound], the stability on storage result was “good stability”. Further, under “0 weeks”, the “Purity of melfufen” value stood at 100 % relative peak area. In addition, for the setting “1 week”, the “Purity of melfufen” value was determined as 100 % relative peak area. In addition, the “Purity of melfufen” value (2 weeks) turned out to be 95 % relative peak area. The “Purity of melfufen” value (3 weeks) was determined as 94 % relative peak area. Further, the “Purity of melfufen” value (4 weeks) was found to be 92 % relative peak area. Besides, the “Purity of melfufen” value (5 weeks) worked out at 89 % relative peak area. Also, the “Purity of melfufen” value (6 weeks) is recorded as 87 % relative peak area. Moreover, where the note is “7 weeks”, the “Purity of melfufen” value is 85 % relative peak area.

With `CCOC(=O)[C@H](Cc1ccc(F)cc1)NC(=O)[C@@H](N)Cc1ccc(N(CCCl)CCCl)cc1.Cc1ccc(S(=O)(=O)O)cc1` [melflufen p-toluenesulfonic acid salt, Ethyl (2S)-2-[[(2S)-2-amino-3-[4-[bis(2-chloroethyl)amino]phenyl]propanoyl]amino]-3-(4-fluorophenyl)propanoate;4-methylbenzenesulfonic acid], the stability on storage result is given as “good stability”. For the same compound, the “Purity of melfufen” value (0 weeks) was 100 % relative peak area. In addition, the “Purity of melfufen” value (1 week) is reported as 96 % relative peak area. Besides, the “Purity of melfufen” value (2 weeks) is 95 % relative peak area. Also, the “Purity of melfufen” value (3 weeks) was 93 % relative peak area. The “Purity of melfufen” value (4 weeks) amounted to 91 % relative peak area. Under “5 weeks”, the “Purity of melfufen” value stood at 89 % relative peak area. Where the note is “6 weeks”, the “Purity of melfufen” value turned out to be 88 % relative peak area. Moreover, the “Purity of melfufen” value (7 weeks) is reported as 87 % relative peak area.

For the origin of these results see patent US12558337B2, “Formulations comprising melflufen” (ON[…], priority 2019, dated 2026).
